Assay results reported in article PMC6516726 (ACS Catalysis, 2018).
Read-outs that look alike come from different tables or passages of the source.

How the values were obtained:
L25I PETNR = L25I PETNR (Enterobacter cloacae, UniProt P71278, L26I); settings: for kobs1 / A2 (amplitude of kobs2 out of total absorbance change) / kobs2: 10 mM NADPH or 25 mM NADH, pH 7.0; for ΔCp^⧧ / ΔHT0^⧧ / ΔST0^⧧: fit of kobs1 (5–40 °C) to eq 1
WT PETNR = WT PETNR (Enterobacter cloacae, UniProt P71278); experiment: Stopped-flow FMN reduction (reductive half-reaction, hydride transfer) of WT PETNR by coenzyme; settings: for kobs1: 10 mM NADPH or 25 mM NADH, pH 7.0; for ΔCp^⧧ / ΔHT0^⧧ / ΔST0^⧧: fit of kobs1 (5–40 °C) to eq 1
Chain of WT PETNR (P71278 entry or part of it): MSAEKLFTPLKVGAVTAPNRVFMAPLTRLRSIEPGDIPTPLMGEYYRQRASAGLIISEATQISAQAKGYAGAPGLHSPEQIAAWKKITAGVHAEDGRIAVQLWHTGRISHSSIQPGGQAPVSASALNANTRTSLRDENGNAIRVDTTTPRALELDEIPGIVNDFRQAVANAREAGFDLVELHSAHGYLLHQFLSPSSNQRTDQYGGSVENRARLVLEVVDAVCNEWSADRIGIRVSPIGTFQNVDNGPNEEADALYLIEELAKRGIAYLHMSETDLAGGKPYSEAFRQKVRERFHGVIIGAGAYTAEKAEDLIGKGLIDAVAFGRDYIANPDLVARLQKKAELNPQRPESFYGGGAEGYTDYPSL

L25A PETNR = L25A PETNR (Enterobacter cloacae, UniProt P71278, L26A); settings: for kobs1 / A2 (amplitude of kobs2 out of total absorbance change) / kobs2: pH 7.0; for ΔCp^⧧ / ΔHT0^⧧ / ΔST0^⧧: fit of kobs1 (5–40 °C) to eq 1
Chain of L25A PETNR (P71278 entry or part of it L26A): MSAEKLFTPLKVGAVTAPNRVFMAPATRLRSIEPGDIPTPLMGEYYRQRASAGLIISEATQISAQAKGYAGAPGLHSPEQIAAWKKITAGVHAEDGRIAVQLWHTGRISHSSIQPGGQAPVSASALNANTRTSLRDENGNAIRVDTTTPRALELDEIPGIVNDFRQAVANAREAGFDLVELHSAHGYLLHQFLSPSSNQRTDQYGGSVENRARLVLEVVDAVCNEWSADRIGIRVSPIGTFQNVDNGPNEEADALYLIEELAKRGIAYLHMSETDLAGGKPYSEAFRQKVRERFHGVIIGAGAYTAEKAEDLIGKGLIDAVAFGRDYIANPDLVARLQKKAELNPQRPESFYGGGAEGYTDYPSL

[1] = deuterated minus protiated coenzyme, T0 = 298 K
[2] = 5 °C, 10 mM NADPH or 25 mM NADH
[3] = 10 °C, 10 mM NADPH or 25 mM NADH
[4] = 15 °C, 10 mM NADPH or 25 mM NADH
[5] = 20 °C, 10 mM NADPH or 25 mM NADH
[6] = 25 °C, 10 mM NADPH or 25 mM NADH
[7] = 30 °C, 10 mM NADPH or 25 mM NADH
[8] = 35 °C, 10 mM NADPH or 25 mM NADH
[9] = 40 °C, 10 mM NADPH or 25 mM NADH
[10] = 25 °C, 50 mM potassium phosphate pH 7.0, 20 μM enzyme
[11] = 25 °C, 50 mM potassium phosphate pH 7.0, 20 μM enzyme, fast phase
[12] = 40 °C, third phase, 10 mM NADPH or 25 mM NADH

Chain of L25I PETNR (P71278 entry or part of it L26I): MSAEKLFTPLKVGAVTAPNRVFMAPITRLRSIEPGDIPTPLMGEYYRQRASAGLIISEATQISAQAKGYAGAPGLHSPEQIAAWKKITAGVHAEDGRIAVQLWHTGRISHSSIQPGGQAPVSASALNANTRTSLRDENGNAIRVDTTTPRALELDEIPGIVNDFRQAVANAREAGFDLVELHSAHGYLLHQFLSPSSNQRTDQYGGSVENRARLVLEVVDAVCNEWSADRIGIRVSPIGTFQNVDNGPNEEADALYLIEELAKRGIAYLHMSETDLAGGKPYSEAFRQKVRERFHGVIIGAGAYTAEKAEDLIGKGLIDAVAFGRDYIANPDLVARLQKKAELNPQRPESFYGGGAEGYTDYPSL

[2H][C@@H]1C=CN([C@@H]2O[C@H](COP(=O)(O)OP(=O)(O)OC[C@H]3O[C@@H](n4cnc5c(N)ncnc54)[C@H](O)[C@@H]3O)[C@@H](O)[C@H]2O)C=C1C(N)=O [(R)-[4-^2H]-NADH]
kobs1 (L25I PETNR; 5 °C): 0.062 ± 0.001 s⁻¹ | kobs1 (L25I PETNR; 10 °C): 0.083 ± 0.001 s⁻¹ | kobs1 (L25I PETNR; 20 °C): 0.160 ± 0.001 s⁻¹ | kobs1 (L25I PETNR; 25 °C): 0.223 ± 0.003 s⁻¹ | kobs1 (L25I PETNR; 30 °C): 0.306 ± 0.005 s⁻¹ | kobs1 (L25I PETNR; 35 °C): 0.418 ± 0.001 s⁻¹ | kobs1 (L25I PETNR; 40 °C): 0.604 ± 0.066 s⁻¹ | ΔCp^⧧ (L25I PETNR; T0 = 298 K): 0.30 ± 0.07 kJ mol^–1 K^–1 | ΔHT0^⧧ (L25I PETNR; T0 = 298 K): 44.9 ± 0.2 kJ mol^–1 | ΔST0^⧧ (L25I PETNR; T0 = 298 K): –106.8 ± 0.8 J mol^–1 K^–1 | Isotope Effect on ΔCp^⧧ (L25I PETNR; [1]): –0.03 ± 0.19 kJ mol^–1 K^–1 | Isotope Effect on ΔHT0^⧧ (L25I PETNR; [1]): 2.3 ± 1.8 kJ mol^–1 | Isotope Effect on ΔST0^⧧ (L25I PETNR; [1]): –9.2 ± 6.0 J mol^–1 K^–1 | kobs1 (WT PETNR; 5 °C): 0.091 ± 0.001 s⁻¹ | kobs1 (WT PETNR; 15 °C): 0.156 ± 0.001 s⁻¹ | kobs1 (WT PETNR; 20 °C): 0.204 ± 0.002 s⁻¹ | kobs1 (WT PETNR; 25 °C): 0.274 ± 0.001 s⁻¹ | kobs1 (WT PETNR; 30 °C): 0.366 ± 0.002 s⁻¹ | kobs1 (WT PETNR; 35 °C): 0.499 ± 0.011 s⁻¹ | kobs1 (WT PETNR; 40 °C): 0.673 ± 0.005 s⁻¹ | ΔCp^⧧ (WT PETNR; T0 = 298 K): 0.46 ± 0.02 kJ mol^–1 K^–1 | ΔHT0^⧧ (WT PETNR; T0 = 298 K): 40.3 ± 0.1 kJ mol^–1 | ΔST0^⧧ (WT PETNR; T0 = 298 K): –120.4 ± 0.5 J mol^–1 K^–1 | Isotope Effect on ΔCp^⧧ (WT PETNR; [1]): 0.07 ± 0.04 kJ mol^–1 K^–1 | Isotope Effect on ΔHT0^⧧ (ΔΔHT0^⧧) (WT PETNR; [1]): 4.9 ± 0.2 kJ mol^–1 | Isotope Effect on ΔST0^⧧ (WT PETNR; [1]): 0.1 ± 0.7 J mol^–1 K^–1 | kobs1 (L25A PETNR; [2]): 0.162 ± 0.002 s⁻¹ | kobs1 (L25A PETNR; [3]): 0.211 ± 0.002 s⁻¹ | kobs1 (L25A PETNR; [4]): 0.275 ± 0.004 s⁻¹ | kobs1 (L25A PETNR; [5]): 0.360 ± 0.004 s⁻¹ | kobs1 (L25A PETNR; [6]): 0.495 ± 0.002 s⁻¹ | kobs1 (L25A PETNR; [7]): 0.612 ± 0.042 s⁻¹ | A2 (amplitude of kobs2 out of total absorbance change) (L25A PETNR; [8]): 15.60 ± 2.69% | kobs1 (L25A PETNR; [8]): 0.885 ± 0.018 s⁻¹ | kobs2 (L25A PETNR; [8]): 0.11 ± 0.03 s⁻¹ | A2 (amplitude of kobs2 out of total absorbance change) (L25A PETNR; [9]): 34.60 ± 0.91% | kobs1 (L25A PETNR; [9]): 1.070 ± 0.054 s⁻¹ | kobs2 (L25A PETNR; [9]): 0.17 ± 0.01 s⁻¹ | ΔCp^⧧ (L25A PETNR; T0 = 298 K): 0.42 ± 0.14 kJ mol^–1 K^–1 | ΔHT0^⧧ (L25A PETNR; T0 = 298 K): 40.3 ± 1.1 kJ mol^–1 | ΔST0^⧧ (L25A PETNR; T0 = 298 K): –115.7 ± 3.8 J mol^–1 K^–1 | Isotope Effect on ΔCp^⧧ (L25A PETNR; [1]): 0.13 ± 0.15 kJ mol^–1 K^–1 | Isotope Effect on ΔHT0^⧧ (L25A PETNR; [1]): 6.6 ± 1.2 kJ mol^–1 | Isotope Effect on ΔST0^⧧ (L25A PETNR; [1]): 6.4 ± 4.2 J mol^–1 K^–1

NC(=O)C1=CN([C@@H]2O[C@H](COP(=O)(O)OP(=O)(O)OC[C@H]3O[C@@H](n4cnc5c(N)ncnc54)[C@H](O)[C@@H]3O)[C@@H](O)[C@H]2O)C=CC1 [NADH]
kobs1 (L25I PETNR; 5 °C): 0.49 ± 0.01 s⁻¹ | kobs1 (L25I PETNR; 10 °C): 0.66 ± 0.01 s⁻¹ | kobs1 (L25I PETNR; 15 °C): 0.90 ± 0.01 s⁻¹ | kobs1 (L25I PETNR; 20 °C): 1.20 ± 0.01 s⁻¹ | KS (L25I PETNR; [10]): 306 ± 40 µM | kred (L25I PETNR; [11]): 1.74 ± 0.04 s^–1 | A2 (amplitude of kobs2 out of total absorbance change) (L25I PETNR; 25 °C): 6.40 ± 2.07% | kobs1 (L25I PETNR; 25 °C): 1.77 ± 0.06 s⁻¹ | kobs2 (L25I PETNR; 25 °C): 0.36 ± 0.10 s⁻¹ | A2 (amplitude of kobs2 out of total absorbance change) (L25I PETNR; 30 °C): 6.86 ± 1.61% | kobs1 (L25I PETNR; 30 °C): 2.39 ± 0.06 s⁻¹ | kobs2 (L25I PETNR; 30 °C): 0.39 ± 0.09 s⁻¹ | A2 (amplitude of kobs2 out of total absorbance change) (L25I PETNR; 35 °C): 8.92 ± 1.01% | kobs1 (L25I PETNR; 35 °C): 3.26 ± 0.07 s⁻¹ | kobs2 (L25I PETNR; 35 °C): 0.49 ± 0.07 s⁻¹ | A2 (amplitude of kobs2 out of total absorbance change) (L25I PETNR; 40 °C): 12.28 ± 1.93% | kobs1 (L25I PETNR; 40 °C): 4.26 ± 0.13 s⁻¹ | kobs2 (L25I PETNR; 40 °C): 0.58 ± 0.05 s⁻¹ | ΔCp^⧧ (L25I PETNR; T0 = 298 K): 0.32 ± 0.18 kJ mol^–1 K^–1 | ΔHT0^⧧ (L25I PETNR; T0 = 298 K): 42.7 ± 1.7 kJ mol^–1 | ΔST0^⧧ (L25I PETNR; T0 = 298 K): –97.7 ± 6.0 J mol^–1 K^–1 | kobs1 (WT PETNR; 5 °C): 0.73 ± 0.01 s⁻¹ | kobs1 (WT PETNR; 10 °C): 0.92 ± 0.01 s⁻¹ | kobs1 (WT PETNR; 15 °C): 1.17 ± 0.01 s⁻¹ | kobs1 (WT PETNR; 20 °C): 1.51 ± 0.01 s⁻¹ | KS (WT PETNR; [10]): 1067 ± 13 µM | kred (WT PETNR; [11]): 2.03 ± 0.01 s^–1 | kobs1 (WT PETNR; 25 °C): 1.95 ± 0.01 s⁻¹ | kobs1 (WT PETNR; 30 °C): 2.53 ± 0.02 s⁻¹ | kobs1 (WT PETNR; 35 °C): 3.30 ± 0.01 s⁻¹ | kobs1 (WT PETNR; 40 °C): 4.25 ± 0.02 s⁻¹ | ΔCp^⧧ (WT PETNR; T0 = 298 K): 0.39 ± 0.03 kJ mol^–1 K^–1 | ΔHT0^⧧ (WT PETNR; T0 = 298 K): 35.4 ± 0.1 kJ mol^–1 | ΔST0^⧧ (WT PETNR; T0 = 298 K): –120.5 ± 0.5 J mol^–1 K^–1 | kobs1 (L25A PETNR; [2]): 1.27 ± 0.01 s⁻¹ | kobs1 (L25A PETNR; [3]): 1.61 ± 0.01 s⁻¹ | kobs1 (L25A PETNR; [4]): 2.03 ± 0.01 s⁻¹ | kobs1 (L25A PETNR; [5]): 2.63 ± 0.03 s⁻¹ | KS (L25A PETNR; [10]): 2294 ± 91 µM | kred (L25A PETNR; [11]): 3.62 ± 0.04 s^–1 | A2 (amplitude of kobs2 out of total absorbance change) (L25A PETNR; [6]): 2.29 ± 0.92% | kobs1 (L25A PETNR; [6]): 3.33 ± 0.07 s⁻¹ | kobs2 (L25A PETNR; [6]): 0.09 ± 0.06 s⁻¹ | A2 (amplitude of kobs2 out of total absorbance change) (L25A PETNR; [7]): 4.93 ± 0.85% | kobs1 (L25A PETNR; [7]): 4.23 ± 0.06 s⁻¹ | kobs2 (L25A PETNR; [7]): 0.08 ± 0.01 s⁻¹ | A2 (amplitude of kobs2 out of total absorbance change) (L25A PETNR; [8]): 12.72 ± 0.74% | kobs1 (L25A PETNR; [8]): 5.20 ± 0.11 s⁻¹ | kobs2 (L25A PETNR; [8]): 0.11 ± 0.01 s⁻¹ | A3 (amplitude of third phase) (L25A PETNR; [12]): 19.01 ± 3.17% | kobs3 (L25A PETNR; [12]): 1.10 ± 0.0 | A2 (amplitude of kobs2 out of total absorbance change) (L25A PETNR; [9]): 20.40 ± 1.48% | kobs1 (L25A PETNR; [9]): 6.74 ± 0.37 s⁻¹ | kobs2 (L25A PETNR; [9]): 0.13 ± 0.01 s⁻¹ | ΔCp^⧧ (L25A PETNR; T0 = 298 K): 0.28 ± 0.05 kJ mol^–1 K^–1 | ΔHT0^⧧ (L25A PETNR; T0 = 298 K): 33.6 ± 0.5 kJ mol^–1 | ΔST0^⧧ (L25A PETNR; T0 = 298 K): –122.1 ± 1.7 J mol^–1 K^–1
